N#CCC(N)=O
solubility (mole fraction)
Details | 283.15 K | 288.15 K | 293.15 K | 298.15 K | 303.15 K | 308.15 K | 313.15 K | 318.15 K | 323.15 K
in ethanol | 0.00653 | 0.00898 | 0.0107 | 0.0129 | 0.0157 | 0.0188 | 0.0233 | 0.0281 | 0.0362
in isopropanol | 0.00409 | 0.00548 | 0.00648 | 0.00816 | 0.0103 | 0.0135 | 0.0168 | 0.0197 | 0.024
in methanol | 0.0186 | 0.0227 | 0.0273 | 0.0332 | 0.0401 | 0.048 | 0.0565 | 0.0684 | 0.08
in n-propanol | 0.00345 | 0.00421 | 0.00565 | 0.0072 | 0.0091 | 0.0115 | 0.0146 | 0.0181 | 0.0229
in water | 0.0171 | 0.0221 | 0.0304 | 0.039 | 0.0505 | 0.0651 | 0.086 | 0.11 | 0.131

— BigSolDB 2.1
